Values after ≈ are worked out from the molar mass of the structure shown.
Tests used:
[1] = Acute toxicity, single intraperitoneal injection; conditions: mouse, in vivo, ip; single i.p. injection, dd mice; read-out: LD50, intraperitoneal administration
[2] = tested on: L1210 cells; assay: Growth inhibition of cultured L1210 cells; conditions: Mus musculus, L1210, read-out: % Inhibition, Growth (on Day 2)
[3] = tested on: Ps. fluoroescens NIHJB-254; assay: Minimum inhibitory concentration, broth dilution method
[4] = tested on: Can. albicans IAM 4905; assay: as above; conditions: Candida albicans, IAM4905
[5] = tested on: Bac. megaterium NRRL B-938; assay: as above; conditions: Priestia megaterium, NRRLB938
[6] = tested on: Bac. cereus ATCC 9634; assay: as above; conditions: Bacillus cereus, ATCC9634
[7] = tested on: P388 leukemia; assay: Inhibition of growth of P388 leukemia in mice; format: in vivo
[8] = tested on: Staph. aureus FDA 209P; assay: Minimum inhibitory concentration, broth dilution method; conditions: Staphylococcus aureus, FDA209P
[9] = tested on: Bac. subtilis ATCC 6633; assay: as above; conditions: Bacillus subtilis, ATCC6633
[10] = tested on: Can. tropicalis IAM 4942; assay: as above; conditions: Candida tropicalis, IAM4942
[11] = tested on: solid and ascitic-type mammalian malignant tumors; assay: Inhibitory action against solid and ascitic-type mammalian malignant tumors; format: in vivo, mammals
[12] = tested on: Corv. bovis 1810; assay: Minimum inhibitory concentration, broth dilution method
[13] = tested on: Pr. morganii; assay: as above; conditions: Morganella morganii
[14] = tested on: Sar. lutea ATCC 9341; assay: as above; conditions: Micrococcus luteus, ATCC9341
[15] = tested on: Mic. flavus; assay: as above; conditions: Micrococcus flavus
[16] = tested on: Mycobact. smegmatis ATCC 607; assay: as above
[17] = tested on: Staph. aureus Smith; assay: as above; conditions: Staphylococcus aureus
[18] = P388 leukemia in mice, in words
[19] = solid and ascitic-type mammalian tumors, in words

CC[C@@]1(O)C[C@H](O[C@H]2C[C@H](N(C)C)[C@H](O[C@H]3C[C@H](O)[C@H](O[C@H]4C[C@H](O)[C@H](O)[C@H](C)O4)[C@H](C)O3)[C@H](C)O2)c2c(cc3c(c2O)C(=O)c2c(O)cccc2C3=O)[C@H]1C(=O)OC [MA 144-U1]
LD50 [1]: 30.2 mg/kg
inhibition at 0.1 µg/mL [2]: 78.5%
MIC [3]: > 100 µg/mL
MIC [4]: > 100 µg/mL
MIC [5]: 3.1 µg/mL (≈ 3.74 µM)
MIC [6]: 1.56 µg/mL (≈ 1.88 µM)
inhibiting the growth of P388 leukemia [7, 18]: effective in inhibiting the growth of malignant tumors
MIC [8]: 6.25 µg/mL (≈ 7.53 µM)
MIC [9]: 3.1 µg/mL (≈ 3.74 µM)
MIC [10]: > 100 µg/mL
inhibitory action against malignant tumors [11, 19]: marked inhibitory action
MIC [12]: 6.25 µg/mL (≈ 7.53 µM)
MIC [13]: > 100 µg/mL
MIC [14]: 1.56 µg/mL (≈ 1.88 µM)
MIC [15]: 1.56 µg/mL (≈ 1.88 µM)
MIC [16]: > 100 µg/mL
MIC [17]: 3.1 µg/mL (≈ 3.74 µM)

CC[C@@]1(O)C[C@H](O[C@H]2C[C@H](N(C)C)[C@H](O[C@H]3C[C@H](O)[C@H](O[C@H]4CC[C@H](O)[C@H](C)O4)[C@H](C)O3)[C@H](C)O2)c2c(cc3c(c2O)C(=O)c2c(O)cccc2C3=O)[C@H]1C(=O)OC [MA 144-N1]
LD50 [1]: 32.5 mg/kg
inhibition at 0.1 µg/mL [2]: 79.2%
MIC [3]: > 100 µg/mL
MIC [4]: > 100 µg/mL
MIC [5]: 3.1 µg/mL (≈ 3.81 µM)
MIC [6]: 0.78 µg/mL (≈ 0.958 µM)
inhibiting the growth of P388 leukemia [7, 18]: effective in inhibiting the growth of malignant tumors
MIC [8]: 6.25 µg/mL (≈ 7.68 µM)
MIC [9]: 3.1 µg/mL (≈ 3.81 µM)
MIC [10]: > 100 µg/mL
inhibitory action against malignant tumors [11, 19]: marked inhibitory action
MIC [12]: 0.78 µg/mL (≈ 0.958 µM)
MIC [13]: > 100 µg/mL
MIC [14]: 0.78 µg/mL (≈ 0.958 µM)
MIC [15]: 0.4 µg/mL (≈ 0.491 µM)
MIC [16]: > 100 µg/mL
MIC [17]: 0.78 µg/mL (≈ 0.958 µM)

CC[C@@]1(O)C[C@H](O[C@H]2C[C@H](N(C)C)[C@H](O[C@H]3C[C@H](O)[C@H](O)[C@H](C)O3)[C@H](C)O2)c2c(cc3c(c2O)C(=O)c2c(O)cccc2C3=O)[C@H]1C(=O)OC [MA 144-S1, 2-deoxy-L-fucosyl-L-rhodosaminyl-aklavinone]
LD50 [1]: 24.4 mg/kg
inhibition at 0.1 µg/mL [2]: 86%
MIC [3]: > 100 µg/mL
MIC [4]: > 100 µg/mL
MIC [5]: 3.1 µg/mL (≈ 4.43 µM)
MIC [6]: 1.56 µg/mL (≈ 2.23 µM)
inhibiting the growth of P388 leukemia [7, 18]: effective in inhibiting the growth of malignant tumors
MIC [8]: 6.25 µg/mL (≈ 8.93 µM)
MIC [9]: 3.1 µg/mL (≈ 4.43 µM)
MIC [10]: > 100 µg/mL
inhibitory action against malignant tumors [11, 19]: marked inhibitory action
MIC [12]: 0.78 µg/mL (≈ 1.11 µM)
MIC [13]: > 100 µg/mL
MIC [14]: 1.56 µg/mL (≈ 2.23 µM)
MIC [15]: 1.56 µg/mL (≈ 2.23 µM)
MIC [16]: > 100 µg/mL
MIC [17]: 3.1 µg/mL (≈ 4.43 µM)

CC[C@@]1(O)C[C@H](O[C@H]2C[C@H](N(C)C)[C@H](O[C@H]3C[C@H](O)[C@H](OC4CCC(=O)C(C)O4)[C@H](C)O3)[C@H](C)O2)c2c(cc3c(c2O)C(=O)c2c(O)ccc(O)c2C3=O)[C@H]1C(=O)OC (stereo partly drawn) [D-cinerulosyl-2-deoxy-L-fucosyl-L-rhodosaminyl-ε-pyrromycinone]
LD50 [1]: 17 mg/kg
inhibition at 0.1 µg/mL [2]: 82.1%
MIC [3]: 100 µg/mL (≈ 121 µM)
MIC [4]: > 100 µg/mL
MIC [5]: 6.25 µg/mL (≈ 7.55 µM)
MIC [6]: 0.78 µg/mL (≈ 0.942 µM)
inhibiting the growth of P388 leukemia ([7]; mouse, in vivo): effective in inhibiting the growth of malignant tumors
MIC [8]: 3.12 µg/mL (≈ 3.77 µM)
MIC [9]: 1.56 µg/mL (≈ 1.88 µM)
MIC [10]: > 100 µg/mL
inhibitory action against malignant tumors ([11]; in vivo): marked inhibitory action
MIC [12]: 0.78 µg/mL (≈ 0.942 µM)
MIC [13]: > 100 µg/mL
MIC [14]: 0.78 µg/mL (≈ 0.942 µM)
MIC [15]: 0.2 µg/mL (≈ 0.242 µM)
MIC [16]: 3.12 µg/mL (≈ 3.77 µM)
MIC [17]: 1.56 µg/mL (≈ 1.88 µM)

CC[C@@]1(O)C[C@H](O[C@H]2C[C@H](N(C)C)[C@H](O[C@H]3C[C@H](O)[C@H](O)[C@H](C)O3)[C@H](C)O2)c2c(cc3c(c2O)C(=O)c2c(O)ccc(O)c2C3=O)[C@H]1C(=O)OC [MA 144-S2]
LD50 [1]: 12.5 mg/kg
inhibition at 0.1 µg/mL [2]: 88.1%
MIC [3]: > 100 µg/mL
MIC [4]: > 100 µg/mL
MIC [5]: 3.1 µg/mL (≈ 4.33 µM)
MIC [6]: 0.78 µg/mL (≈ 1.09 µM)
inhibiting the growth of P388 leukemia [7, 18]: effective in inhibiting the growth of malignant tumors
MIC [8]: 6.25 µg/mL (≈ 8.73 µM)
MIC [9]: 3.1 µg/mL (≈ 4.33 µM)
MIC [10]: > 100 µg/mL
MIC [12]: 0.78 µg/mL (≈ 1.09 µM)
MIC [13]: > 100 µg/mL
MIC [14]: 1.56 µg/mL (≈ 2.18 µM)
MIC [15]: 0.78 µg/mL (≈ 1.09 µM)
MIC [16]: > 100 µg/mL
MIC [17]: 0.78 µg/mL (≈ 1.09 µM)

CC[C@@]1(O)C[C@H](O[C@H]2C[C@H](N(C)C)[C@H](O[C@H]3C[C@H](O)[C@H](O[C@H]4C=CC(=O)[C@H](C)O4)[C@H](C)O3)[C@H](C)O2)c2c(cc3c(c2O)C(=O)c2c(O)cccc2C3=O)[C@H]1C(=O)OC [MA 144-Y]
LD50 [1]: 40 to 50 mg/kg
inhibition at 0.1 µg/mL [2]: 90.2%
MIC [3]: > 100 µg/mL
MIC [4]: > 100 µg/mL
MIC [5]: 0.2 µg/mL (≈ 0.247 µM)
MIC [6]: 0.1 µg/mL (≈ 0.123 µM)
inhibiting the growth of P388 leukemia [7, 18]: effective in inhibiting the growth of malignant tumors
MIC [8]: 0.4 µg/mL (≈ 0.494 µM)
MIC [9]: 0.2 µg/mL (≈ 0.247 µM)
MIC [10]: > 100 µg/mL
inhibitory action against malignant tumors [11, 19]: marked inhibitory action
MIC [12]: 0.2 µg/mL (≈ 0.247 µM)
MIC [13]: > 100 µg/mL
MIC [14]: 0.2 µg/mL (≈ 0.247 µM)
MIC [15]: 0.1 µg/mL (≈ 0.123 µM)
MIC [16]: 3.1 µg/mL (≈ 3.83 µM)
MIC [17]: 0.2 µg/mL (≈ 0.247 µM)

CC[C@@]1(O)C[C@H](O[C@H]2C[C@H](N(C)C)[C@H](O[C@H]3C[C@H](O)[C@H](O[C@H]4C[C@H](O)[C@H](O)[C@H](C)O4)[C@H](C)O3)[C@H](C)O2)c2c(cc3c(c2O)C(=O)c2c(O)ccc(O)c2C3=O)[C@H]1C(=O)OC [MA 144-U2]
LD50 [1]: 14.5 mg/kg
inhibition at 0.1 µg/mL [2]: 80.5%
MIC [3]: > 100 µg/mL
MIC [4]: > 100 µg/mL
MIC [5]: 1.56 µg/mL (≈ 1.84 µM)
MIC [6]: 1.56 µg/mL (≈ 1.84 µM)
inhibiting the growth of P388 leukemia ([7]; mouse, in vivo): effective in inhibiting the growth of malignant tumors
MIC [8]: 3.1 µg/mL (≈ 3.66 µM)
MIC [9]: 3.1 µg/mL (≈ 3.66 µM)
MIC [10]: > 100 µg/mL
MIC [12]: 6.25 µg/mL (≈ 7.39 µM)
MIC [13]: > 100 µg/mL
MIC [14]: 1.56 µg/mL (≈ 1.84 µM)
MIC [15]: 0.78 µg/mL (≈ 0.922 µM)
MIC [16]: > 100 µg/mL
MIC [17]: 0.78 µg/mL (≈ 0.922 µM)

CC[C@@]1(O)C[C@H](O[C@H]2C[C@H](N(C)C)[C@H](O[C@H]3C[C@H](O)[C@H](OC4CCC(=O)C(C)O4)[C@H](C)O3)[C@H](C)O2)c2c(cc3c(c2O)C(=O)c2c(O)cccc2C3=O)[C@H]1C(=O)OC (stereo partly drawn) [D-cinerulosyl-2-deoxy-L-fucosyl-L-rhodosaminyl-alkavinone]
LD50 [1]: 28.5 mg/kg
inhibition at 0.1 µg/mL [2]: 80.7%
MIC [3]: 100 µg/mL (≈ 123 µM)
MIC [4]: 100 µg/mL (≈ 123 µM)
MIC [5]: 6.25 µg/mL (≈ 7.7 µM)
MIC [6]: 1.56 µg/mL (≈ 1.92 µM)
inhibiting the growth of P388 leukemia ([7]; mouse, in vivo): effective in inhibiting the growth of malignant tumors
MIC [8]: 6.25 µg/mL (≈ 7.7 µM)
MIC [9]: 3.12 µg/mL (≈ 3.84 µM)
MIC [10]: 100 µg/mL (≈ 123 µM)
inhibitory action against malignant tumors ([11]; in vivo): marked inhibitory action
MIC [12]: 1.56 µg/mL (≈ 1.92 µM)
MIC [13]: > 100 µg/mL
MIC [14]: 0.78 µg/mL (≈ 0.961 µM)
MIC [15]: 0.2 µg/mL (≈ 0.246 µM)
MIC [16]: 3.12 µg/mL (≈ 3.84 µM)
MIC [17]: 1.56 µg/mL (≈ 1.92 µM)

CC[C@@]1(O)C[C@H](O[C@H]2C[C@H](N(C)C)[C@H](O[C@H]3C[C@H](O)[C@H](O[C@H]4CCC(=O)[C@H](C)O4)[C@H](C)O3)[C@H](C)O2)c2c(cc3c(c2O)C(=O)c2c(O)cccc2C3=O)[C@H]1C(=O)OC [Aclacinomycin, reference compound]
inhibition at 0.1 µg/mL [2]: 89.7%
